Assay results from PubChem BioAssay AID1963427 (Molecular Pharmacology Branch, DTP, NCI, 2024).
Values joined by “and” are separate entries in the source; they are usually repeats but may differ in a detail not shown here. Equal entries are not always repeated.

Test system: 317291-083-R-J1-PDC complex spheroid growth
Assay: Anticancer human tumor 317291-083-R-J1-PDC patient-derived soft tissue sarcoma cell line growth inhibition [Asc]
Settings: for viability, T/C: stronger effect = lower value
Experimental: Multicellular complex tumor spheroid response to apoptosis pathway targeting inhibitors Alrizomadlin, Pelcitoclax, and Dasminapant in combination with a variety of drugs and investigational agents in selected tumor cell lines
The MDM2 inhibitor alrizomadlin, the Bcl-2/Bcl-xL inhibitor pelcitoclax, and the IAPs inhibitor dasminapant were evaluated both individually and in combination with standard of care and investigational anticancer small molecules within a complex spheroid model of solid tumors. . Complex spheroids include a stromal component modeled by human endothelial cells (HUVEC) and fibroblasts modeled by human mesenchymal stem cells (MSCs). The concentration ranges selected for each drug and investigational agent were based upon clinically achievable concentrations if the clinical Cmax of the agent was known.
Compounds. The drugs and investigational agents: alrizomadlin (APG-115; NSC831270), pelcitoclax (APG-1252; NSC835773), dasminapant (APG-1387;NSC834197), TAK-243 (NSC785004), copanlisib (NSC809693), olaparib (NSC753686), talazoparib (NSC767125), cobimetinib (NSC 768068), eltanexor (KPT-8602, NSC 794443), abemaciclib (NSC 768073), sotorasib (NSC818433), adagrasib (NSC 831453), MRTX-1133 (NSC 836407), Iadademestat (ORY1001, NSC 806812), and RMC-4630 (NSC839698), were obtained from the NCI Developmental Therapeutics Program Chemical Repository. The FDA-approved anticancer drug set is available from the Developmental Therapeutics Program at https://dtp.cancer.gov/organization/dscb/obtaining/available plates.htm. […] The stock solutions were prepared in dimethyl sulfoxide (DMSO, Sigma-Aldrich, St. Louis, MO, cat. D2650) at 800-fold the tested concentration and stored at -70 degrees C prior to their use. All drugs and investigational agents were tested over a range starting from a high concentration at or near the clinical Cmax and decreasing in half-log increments. If the clinical Cmax for an agent had not been determined, the highest concentration tested was 10 microM.
The patient-derived cancer (PDC) cell lines include five colon adenocarcinomas: 186277-243-T-J2-PDC, 616215-338-R-J1-PDC, 439559-082-T-J2-PDC, 463943-066-T-J2-PDC, and 519858-162-T-J1-PDC; three pancreatic carcinomas: 323965-272-R-J2-PDC, 521955-158-R6-J3-PDC, and 521955-158-R2-J5-PDC; two uterine sarcomas: 327498-152-R-J2-PDC and 993429-296-R-J1-PDC; two rhabdomyosarcomas: 755483-174-R-J1-PDC and 772245-204-R-J1-PDC; two soft tissue sarcomas: 126254-015-R-J1-PDC and 494315-158-R-J1-PDC; two malignant fibrous histiocytomas: 317291-083-R-J1-PDC and 596521-263-R-J1-PDC; two breast carcinomas: 171881-019-R-J1-PDC and 885512-296-R-J2-PDC; and one ovarian carcinoma: 6556581-035-R-J-PDC were obtained from the NCI PDMR, (https://pdmr.cancer.gov). The established cell lines HSSY-2 synovial sarcoma (RRID:CVCL 8719), SYO-1 synovial sarcoma (RRID:CVCL_7146), MPNST malignant peripheral neural sheath tumor were obtained from the Sloan Kettering Institute. The following established cell lines were purchased from the American Type Culture Collection (ATCC, Manassas, VA), Sor the received from the NCI repository:, PANC-1 pancreatic carcinoma (CRL-1469, RRID:CVCL_0480), OVCAR-5 ovarian carcinoma (RRID:CVCL_1628), OVCAR-8 ovarian carcinoma (RRID:CVCL_1629), , MCF-7 breast carcinoma (CRL-12584, RRID:CVCL_0031), MDA-MB-231 breast carcinoma (CRL-12532, RRID:CVCL_0062), NCI-H1876 small cell lung carcinoma (CRL-5902, RRID:CVCL_1503), NCI-H510A small cell lung carcinoma (HTB-184, RRID:CVCL_1565), NCI-H1417 (CRL-5869, RRID:CVCL_1469), and NCI-H196 small cell lung carcinoma (CRL-5823, RRID:CVCL_1509). Dr. Peter Houghton (Greehey Children's Cancer Research Institute, University of Texas Health Science Center, San Antonio, TX) provided Rh-18 rhabdomyosarcoma (RRID:CVCL_1659). Pooled donor human umbilical vein endothelial cells (HUVEC, Lonza, cat. CC-2519) and human mesenchymal stem cells (hMSC, Lonza, cat. PT-2501) were purchased from Lonza (Walkersville, MD).
Cell Culture. […]

[1] = curve of first compound, second compound 0.00949 µM
[2] = curve of first compound, second compound 0.03 µM
[3] = curve of first compound, second compound 0.0949 µM
[4] = curve of first compound, second compound 0.3 µM
[5] = curve of first compound, second compound 0.949 µM
[6] = curve of first compound, second compound 3 µM
[7] = second compound 0.00949 µM, first compound 0.0316 µM
[8] = second compound 0.00949 µM, first compound 0.1 µM
[9] = second compound 0.00949 µM, first compound 0.316 µM
[10] = second compound 0.00949 µM, first compound 1 µM
[11] = second compound 0.03 µM, first compound 0.0316 µM
[12] = second compound 0.03 µM, first compound 0.1 µM
[13] = second compound 0.03 µM, first compound 0.316 µM
[14] = second compound 0.03 µM, first compound 1 µM
[15] = second compound 0.0949 µM, first compound 0.0316 µM
[16] = second compound 0.0949 µM, first compound 0.1 µM
[17] = second compound 0.0949 µM, first compound 0.316 µM
[18] = second compound 0.0949 µM, first compound 1 µM
[19] = second compound 0.3 µM, first compound 0.0316 µM
[20] = second compound 0.3 µM, first compound 0.1 µM
[21] = second compound 0.3 µM, first compound 0.316 µM
[22] = second compound 0.3 µM, first compound 1 µM
[23] = second compound 0.949 µM, first compound 0.0316 µM
[24] = second compound 0.949 µM, first compound 0.1 µM
[25] = second compound 0.949 µM, first compound 0.316 µM
[26] = second compound 0.949 µM, first compound 1 µM
[27] = second compound 3 µM, first compound 0.0316 µM
[28] = second compound 3 µM, first compound 0.1 µM
[29] = second compound 3 µM, first compound 0.316 µM
[30] = second compound 3 µM, first compound 1 µM
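Also: compound exposure lasted seven days after spheroids formed for three days.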
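For viability, T/C in this document: 100% = DMSO vehicle control wells.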

Compound COc1c(OCCCN2CCOCC2)ccc2c3n(c(=NC(=O)c4cnc(N)nc4)nc12)CCN3 + CCN1C(C(=O)NC23CCC(C(=O)O)(CC2)CC3)C(c2cccc(Cl)c2F)C2(C(=O)Nc3cc(Cl)ccc32)C12CCCCC2 has an IC50 [1] of 177 nM, an IC50 [2] of 182 nM and an IC50 [3] of 213 nM. For the same compound, the IC50 [4] was 173 nM, the IC50 [5] was 180 nM and the IC50 [6] was 127 nM. The viability, T/C (second compound 0.00949 µM, first compound 0.00316 µM) was 95.6%, the viability, T/C (second compound 0.00949 µM, first compound 0.01 µM) was 85.8% and the viability, T/C [7] was 85%. For the same compound, the viability, T/C [8] was 64.9%, the viability, T/C [9] was 34.6% and the viability, T/C [10] was 16.3%. The viability, T/C (second compound 0.03 µM, first compound 0.00316 µM) was 95.6%, the viability, T/C (second compound 0.03 µM, first compound 0.01 µM) was 79.2% and the viability, T/C [11] was 79.5%. For the same compound, the viability, T/C [12] was 56.2%, the viability, T/C [13] was 43.8% and the viability, T/C [14] was 13.9%. For the same compound, the viability, T/C (second compound 0.0949 µM, first compound 0.00316 µM) was 93.7%, the viability, T/C (second compound 0.0949 µM, first compound 0.01 µM) was 83.4% and the viability, T/C [15] was 81.3%. It also gave a viability, T/C [16] of 79.4%, a viability, T/C [17] of 34.8% and a viability, T/C [18] of 16.9%. It also gave a viability, T/C (second compound 0.3 µM, first compound 0.00316 µM) of 120%, a viability, T/C (second compound 0.3 µM, first compound 0.01 µM) of 76.9% and a viability, T/C [19] of 84.7%. The viability, T/C [20] was 67%, the viability, T/C [21] was 37.1% and the viability, T/C [22] was 17.4%. It also gave a viability, T/C (second compound 0.949 µM, first compound 0.00316 µM) of 85.1%, a viability, T/C (second compound 0.949 µM, first compound 0.01 µM) of 74% and a viability, T/C [23] of 86.8%. It also gave a viability, T/C [24] of 58.5%, a viability, T/C [25] of 39.2% and a viability, T/C [26] of 15.4%. For the same compound, the viability, T/C (second compound 3 µM, first compound 0.00316 µM) was 88.2%, the viability, T/C (second compound 3 µM, first compound 0.01 µM) was 71% and the viability, T/C [27] was 73.3%. It also gave a viability, T/C [28] of 55%, a viability, T/C [29] of 32.8% and a viability, T/C [30] of 15.2%.
With CCN1C(C(=O)NC23CCC(C(=O)O)(CC2)CC3)C(c2cccc(Cl)c2F)C2(C(=O)Nc3cc(Cl)ccc32)C12CCCCC2 (stereo not drawn) the viability, T/C (compound 0.0949 µM) was 96.6% [middle of 9 runs], the viability, T/C (compound 0.3 µM) was 95.2% [middle of 9 runs] and the viability, T/C (compound 3 µM) was 87.6% [middle of 9 runs]. For the same compound, the IC50 (compound alone, run of 11/07/2022) was over 3000 nM and the IC50 (curve of compound) was over 3000 nM.
C=C(F)C(=O)N1CCN(c2nc(OCC3CCCN3C)nc3c2CCN(c2cccc4cccc(Cl)c24)C3)CC1CC#N (stereo not drawn) was tested, and the viability, T/C (compound 0.0316 µM) was 83.4% and 107% (2×), the viability, T/C (compound 0.1 µM) was 76.7% and 88.1% and 99.1% and the viability, T/C (compound 0.316 µM) was 93.2% and 95.1% and 113%. For the same compound, the viability, T/C (compound 1 µM) was 89% and 89.6% and 87.7%, the viability, T/C (compound 3.16 µM) was 47% and 39% and 55.3% and the viability, T/C (compound 10 µM) was 0.16% and 0.29% and 0.23%. The IC50 (curve of compound) was 2890 nM and 2460 nM and 3470 nM.
With CCN1CCN(Cc2ccc(Nc3ncc(F)c(-c4cc(F)c5nc(C)n(C(C)C)c5c4)n3)nc2)CC1 the viability, T/C (compound 0.00316 µM) was 91.8% and 94.4% and 104%, the viability, T/C (compound 0.01 µM) was 93.8% and 95.1% (2×) and the viability, T/C (compound 0.0316 µM) was 99.1% and 98.7% and 102%. For the same compound, the viability, T/C (compound 0.1 µM) was 101% and 97.3% and 89.7%, the viability, T/C (compound 0.316 µM) was 72.4% and 84.1% and 82.4% and the viability, T/C (compound 1 µM) was 49.5% and 82.8% and 50.7%. For the same compound, the IC50 (curve of compound) was over 1000 nM.
C=C(F)C(=O)N1CCN(c2nc(OCC3CCCN3C)nc3c2CCN(c2cccc4cccc(Cl)c24)C3)CC1CC#N (stereo not drawn) + CCN1C(C(=O)NC23CCC(C(=O)O)(CC2)CC3)C(c2cccc(Cl)c2F)C2(C(=O)Nc3cc(Cl)ccc32)C12CCCCC2 showed an IC50 [1] of 2510 nM, an IC50 [2] of 2830 nM and an IC50 [3] of 3940 nM. For the same compound, the IC50 [4] was 1980 nM, the IC50 [5] was 2430 nM and the IC50 [6] was 2110 nM. The viability, T/C [7] was 105%, the viability, T/C [8] was 101% and the viability, T/C [9] was 90.2%. For the same compound, the viability, T/C [10] was 93.2%, the viability, T/C (second compound 0.00949 µM, first compound 3.16 µM) was 39.3% and the viability, T/C (second compound 0.00949 µM, first compound 10 µM) was 0.31%. It also gave a viability, T/C [11] of 92.7%, a viability, T/C [12] of 91.8% and a viability, T/C [13] of 99.3%. It also gave a viability, T/C [14] of 95.2%, a viability, T/C (second compound 0.03 µM, first compound 3.16 µM) of 45.1% and a viability, T/C (second compound 0.03 µM, first compound 10 µM) of 0.14%. For the same compound, the viability, T/C [15] was 106%, the viability, T/C [16] was 89% and the viability, T/C [17] was 122%. The viability, T/C [18] was 98.7%, the viability, T/C (second compound 0.0949 µM, first compound 3.16 µM) was 61.9% and the viability, T/C (second compound 0.0949 µM, first compound 10 µM) was 0.14%. It also gave a viability, T/C [19] of 106%, a viability, T/C [20] of 92.4% and a viability, T/C [21] of 92.7%. For the same compound, the viability, T/C [22] was 86.8%, the viability, T/C (second compound 0.3 µM, first compound 3.16 µM) was 24.8% and the viability, T/C (second compound 0.3 µM, first compound 10 µM) was 0.21%. For the same compound, the viability, T/C [23] was 104%, the viability, T/C [24] was 93% and the viability, T/C [25] was 91.9%. For the same compound, the viability, T/C [26] was 98%, the viability, T/C (second compound 0.949 µM, first compound 3.16 µM) was 36.1% and the viability, T/C (second compound 0.949 µM, first compound 10 µM) was 0.19%. The viability, T/C [27] was 78.2%, the viability, T/C [28] was 91.9% and the viability, T/C [29] was 85.5%. The viability, T/C [30] was 64.5%, the viability, T/C (second compound 3 µM, first compound 3.16 µM) was 41.4% and the viability, T/C (second compound 3 µM, first compound 10 µM) was 1.13%.
